Source: patent US11656221B2, “Methods to identify modulators of actin-binding proteins” (Regents of the University of Minnesota, priority 2019, dated 2023)
“Also recorded” adds a separate entry of the source. Like-named read-outs stand apart in the source and are kept apart here.

Key:
[1] = target: T1, Lifeact-mCherry binding to F-actin (Oryctolagus cuniculus, UniProt P68135); test: F-actin and Lifeact-mCherry co-sedimentation assay; design: species or system New Zealand white rabbit (Oryctolagus cuniculus); settings: 10 μM
T1 construct: Actin was purified from acetone powder derived from the psoas muscle; made in house; host or cells: actin from rabbit psoas muscle; Lifeact-mCherry from E. coli, pE-SUMOpro
Method: Actin was purified from acetone powder derived from the psoas muscle of New Zealand white rabbit (Oryctolagus cuniculus). Filamentous (F)-actin was stored for up to 3 days on ice before use in binding assays. Within an hour of the binding assay, the F-actin was clarified at 100,000×g at 4° C. for 10 min prior to setting up binding assays. The L253P β-III-spectrin ABD was expressed in E. coli BL21(DE3) (Novagen). The ABD was purified and the His-SUMO tag proteolytically removed, as previously described, except size-exclusion chromatography was not performed due to the high purity of the ABD protein. Lifeact-mCherry protein was similarly prepared. A Bradford assay was performed to determine clarified F-actin and ABD protein concentrations.
F-actin and ABD binding assays were performed as previously described. In brief, binding assays used 1 μM ABD protein, 1 μM F-actin and 1-50 μM compound (as indicated) or DMSO control for a total reaction volume of 60 μL in F-buffer containing 10 mM Tris, pH 7.5, 150 mM NaCl, 0.5 mM ATP, 2 mM MgCl2, and 1 mM DTT. Following 30 min incubation at room temperature (21° C.). F-actin was pelleted using centrifugation at 100,000×g at 25° C. for 30 min. Unbound ABD in the supernatant was measured following SDS-PAGE and Coomassie blue staining in accord. In addition, control co-sedimentations assays that lacked actin were performed to test if compounds cause ABD aggregation. F-actin and Lifeact-mCherry binding assays were undertaken with 2 μM Lifeact-mCherry, 30 μM F-actin and 1-50 μM compound (as indicated) or DMSO control for a total reaction volume of 80 μL in F-buffer. For a no-actin binding control, an assay sample with no F-actin was also set up. Binding reactions were allowed to reach equilibrium at room temperature (21° C.) for 30 min and then F-actin was pelleted by centrifugation at 100,000×g at 25° C. for 30 min. The amount of unbound Lifeact-mCherry was sampled by loading 7 μL of spin supernatant on a low volume black bottom 384-well plate (Greiner). Amount of mCherry was determined by acquiring fluorescence spectrum peak intensity at ˜600 nm using a spectral unmixing plate reader (Fluorescence Innovations, Inc) equipped with a 532 nm laser (Laserglow Technologies, Ontario, Canada) for excitation, 532 nm longpass filter for emission, and PMT for emission detection. The fraction of Lifeact-mCherry bound to F-actin was determined by subtracting from one the fraction of supernatant fluorescence intensity relative to the no-actin control sample, using the following equation:
[formula] • Where Fcontrol/DMSO is the peak mCherry fluorescence of assay samples containing compound or DMSO control, and Fno-actin is the peak mCherry fluorescence of assay samples that contained no F-actin. 2.9 Trypan Blue Cell Viability Assays

mammalian cells = settings: cited from earlier work
[2] = target: T2, ternary complex consisting of GFP-ABD-L253P, Lifeact-mCherry, and actin (Homo sapiens, UniProt O15020, L253P); test: Primary live-cell time-resolved FRET assay (GFP-ABD-L253P plus Lifeact-mCherry); assay type: cell-based; settings: for effect on FRET in primary screen (Hit, 4SD threshold): LOPAC compounds 10 μM, 120 min
T2 construct: L252P β-III-spectrin (human) ABD residues 1-284; expressed in transfected cells; host or cells: HEK293-6E, pTT5 vector, transient

HEK293-6E cells = test: Trypan blue cell viability assay; assay type: cell-based; settings: 10 μM, 3 hr incubation
Method: HEK293-6E cell viability was measured using trypan blue (0.03%) staining and a Countess Automated Cell counter (Invitrogen). Non-transfected HEK293-6E cells were spun at 100×g for 5 min at 21° C., and resuspended in 10 mL of PBS. The centrifugation and resuspension were repeated twice more. Final cell concentration was 1×10^6 cells/mL. Cells were incubated with 2% DMSO, or 3-50 μM compound (as indicated) for 3 hrs at room temperature (21° C.). After addition of 100 μL of 0.06% trypan blue solution in PBS, 10 μL was loaded on a slide and injected into the cell counter, and cell viability was measured.

[3] = target: T3, GFP-ABD-L253P and Lifeact-mCherry on actin filaments (Homo sapiens, UniProt O15020, L253P); test: Live-cell FRET assay after actin depolymerization (Example 2); assay type: cell-based; settings: 60 min treatment
T3 construct: expressed in transfected cells; host or cells: HEK293.2sus (ATCC CRL-1573.3), pcDNA3.1(+), transient
From the text: Expression constructs. FRET donor and acceptor constructs were generated using the plasmid expression vector, pcDNA3.1(+) (Invitrogen). The coding sequence for Lifeact-mCherry was PCR amplified from mCherry-Lifeact-7 (Addgene, plasmid #54491) using the oligonucleotides, […] and […], and ligated into pcDNA3.1(+) using the restriction enzymes Kpn1 and Xba1, resulting in the construct pcDNA3.1-Lifeact-mCherry. To generate GFP-ABD expression constructs, a mEGFP DNA construct with flanking Kpn1 and EcoR1 restriction sites, was synthesized (Integrated DNA Technologies). The mEGFP sequence was subcloned into pcDNA3.1(+) using Kpn1 and EcoR1 restriction enzymes, resulting the in the construct, pcDNA3.1-GFP. DNA sequences encoding the wild-type or L253P human β-III-spectrin ABD (amino acids 1-284, NCBI reference sequence NP_008877.1) were PCR amplified from pE-SUMO-ABD-WT or -L253P (Avery, 2017 PMID: 29116080) using the oligonucleotides […] and […], and inserted into pcDNA3.1-GFP using EcoR1 and Xba1 restriction enzymes. The resulting constructs, pcDNA3.1-GFP-ABD-WT and -L253P, along with pcDNA3.1-Lifeact-mCherry, were sequence verified. […]
FRET Measurement. FRET in live cells was measured using a Fluorescence Lifetime (FLT) Plate Reader (FLTPR) (Fluorescence Innovations). […]

actin filaments = settings: cited from earlier work
[4] = target: T4, GFP-ABD-L253P and mCherry (non-specific FRET) in HEK293-6E cells (Homo sapiens, UniProt O15020, L253P); test: Counter FRET assay, non-specific FRET (GFP-ABD-L253P plus mCherry); assay type: cell-based; settings: 0.1% Triton X-100, cell lysis
T4 construct: L252P β-III-spectrin (human) ABD residues 1-284; expressed in transfected cells; host or cells: HEK293-6E, pTT5 vector, transient
Method: At 2×10^6 cells/mL, HEK293-6E cells were transfected with GFP-ABD (2.4 μg), Lifeact-mCherry (2.4-16.8 μg), mCherry (1.2-16.8 μg), and/or pTT5 (0.8-17.6 μg) using the 293fectin protocol (Thermo Fisher Scientific) with 20 μg total DNA. The cells were harvested 24 hours later by centrifugation at 100×g for 5 min, and then washed twice with PBS. Cell viability and concentration were determined using trypan blue assay and a Countess cell counter (Invitrogen).
Using a Multidrop Combi liquid dispenser (Thermo Fisher Scientific), 10^6 cells/mL were dispersed into 1536-well and 384-well plates as 5 or 50 μL aliquots, respectively. For control and tool compound plates, 100 nL of DMSO or potential tool compound was loaded using the Mantis (Formulatrix). […] Two to three hours after sample loading, fluorescence lifetime measurements were performed using high-throughput fluorescence plate-readers provided by Photonic Pharma LLC (MN, USA), including one detecting fluorescence lifetime and another detecting fluorescence spectra, as described previously.
To develop a biosensor that monitors the binding of mutant L253P β-III-spectrin to actin filaments in live cells, a fluorescence resonance energy transfer (FRET) approach was tested. […] To measure the non-specific component to our FRET readout, we concurrently tested expression of mCherry in place of Lifeact-mCherry. […]

T3 sequence (O15020 1-284 L253P): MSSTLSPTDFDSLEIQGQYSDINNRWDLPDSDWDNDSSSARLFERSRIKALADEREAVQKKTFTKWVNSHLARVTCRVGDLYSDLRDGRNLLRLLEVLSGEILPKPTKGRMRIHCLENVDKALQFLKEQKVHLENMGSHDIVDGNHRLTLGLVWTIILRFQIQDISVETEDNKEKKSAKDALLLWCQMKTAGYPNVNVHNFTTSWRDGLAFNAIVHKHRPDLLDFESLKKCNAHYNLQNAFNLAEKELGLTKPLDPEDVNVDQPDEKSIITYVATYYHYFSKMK
T2 sequence (O15020 1-284 L253P, one chain of several): as the sequence (O15020 1-284 L253P) above
T4 sequence (O15020 1-284 L253P): as above

CCCCCCCCCCCCCCCC(=O)OC(CC(=O)[O-])C[N+](C)(C)C (racemic) [palmitoyl-DL-carnitine]
effect on Lifeact-mCherry binding with actin [1]: decreased actin-Lifeact co-sedimentation; also recorded: reduce Lifeact-mCherry binding with actin | reported effect on cell viability (mammalian cells): reported to reduce cell viability | effect on FRET in primary screen (Hit, 4SD threshold) [2]: decrease FRET | effect on HEK293-6E cell viability (HEK293-6E cells): dramatically reduced cell viability; also recorded: reduces HEK293-6E cell viability

Clc1ccc(C(c2ccc(Cl)cc2)n2cc[n+](CC(OCc3ccc(Cl)cc3Cl)c3ccc(Cl)cc3Cl)c2)cc1 (centres unmarked) [calmidazolium]
effect on Lifeact-mCherry binding with actin [1]: decreased actin-Lifeact co-sedimentation; also recorded: reduce Lifeact-mCherry binding with actin | reported effect on cell viability (mammalian cells): reported to reduce cell viability | effect on FRET in primary screen (Hit, 4SD threshold) [2]: decrease FRET | effect on HEK293-6E cell viability (HEK293-6E cells): dramatically reduced cell viability; also recorded: reduces HEK293-6E cell viability

C/C1=C/C(=O)O[C@@H]2C[C@@H](CC[C@H](C)/C=C\C=C\CC1)O[C@@](O)([C@@H]1CSC(=O)N1)C2 [latrunculin A]
effect on FRET between GFP-ABD-L253P and Lifeact-mCherry [3]: significantly reduce FRET; also recorded: decrease in FRET

C/C1=C/C(=O)O[C@@H]2C[C@@H](CC[C@H](C)/C=C\CC1)O[C@@](O)([C@@H]1CSC(=O)N1)C2 [latrunculin B]
effect on FRET between GFP-ABD-L253P and Lifeact-mCherry [3]: significantly reduce FRET; also recorded: decrease in FRET

K255E α-actinin-4: α-actinin-4 carrying the disease mutation K255E
Kd (actin filaments; mutant ABD proteins): 0.046 µM

Triton X-100
effect on total FRET ([2]; 0.1% Triton X-100, cell lysis): abolished | effect on non-specific FRET [4]: abolished

wild-type: wild-type dystrophin, comparator for L212P
Kd (actin filaments; wild-type dystrophin, Singh et al.): ~45 µM
